From patent US20100178330A1, “ASYMMETRIC LIPOSOMES AND USES IN MEDICAL FIELD THEREOF” (priority 2007, published 2010)

Key:
[1] = tested on: M. tuberculosis H37Rv infected dTHP-1 cells; assay: Phagolysosome maturation: mycobacteria in LAMP-1 expressing compartments (anti-LAMP-1 / auramin confocal microscopy); assay type: cell-based; conditions: EGTA added to cells stimulated with PS/PA liposomes; FIG. 8
[2] = tested on: M. tuberculosis H37Rv infected dTHP-1 cells; assay: Phagolysosome maturation: mycobacteria in acid compartments (Lyso Tracker Red / auramin confocal microscopy); assay type: cell-based; conditions: 3 mM EGTA added to cells stimulated with PS/PA liposomes; FIG. 7

O=C(O)CN(CCOCCOCCN(CC(=O)O)CC(=O)O)CC(=O)O [EGTA] was tested, and the “effect on PS/PA liposome induced phagolysosome maturation (LAMP-1)” value [1] was “inhibits” and the “effect on PS/PA liposome induced phagosome acidification” value [2] was “inhibits the acidification process of phagosome restoring the initial conditions”.
